# Experiments:
# [1] = CB1 related side-effects: body temperature lowering, LAD; format: in vivo
# Experimental: CB1 related undesired side-effects such as lowering of body temperature, flat body posture, and mydriasis were measured for a number of compounds of the present invention and a number of compounds covered by reference WO-2006/048754.
# [2] = target: T1, human CB2 (hCB2) receptor (Homo sapiens, UniProt P34972); assay: Inhibition of forskolin-activated cAMP production upon activation of human CB2 receptor (HTRF); format: cell-based; details: CHO-K1 cells stably transfected with hCB2; 15 μM forskolin; pEC50=-log(EC50); relative to WIN55212-2
# T1 construct: expressed in transfected cells; host or cells: CHO-K1
# T1 sequence (P34972 whole entry): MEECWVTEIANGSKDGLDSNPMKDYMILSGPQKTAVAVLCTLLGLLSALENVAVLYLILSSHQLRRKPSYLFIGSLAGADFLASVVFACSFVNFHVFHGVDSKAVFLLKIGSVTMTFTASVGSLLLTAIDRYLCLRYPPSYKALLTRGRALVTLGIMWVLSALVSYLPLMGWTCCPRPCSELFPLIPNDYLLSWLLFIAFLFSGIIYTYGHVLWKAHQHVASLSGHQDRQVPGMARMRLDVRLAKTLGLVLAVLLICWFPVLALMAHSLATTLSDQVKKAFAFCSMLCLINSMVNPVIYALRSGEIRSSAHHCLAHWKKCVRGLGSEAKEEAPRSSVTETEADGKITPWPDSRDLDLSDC
# Experimental: D. Pharmacological Examples D.1 Inhibition of cAMP in Response to Activation of the Human CB2 Receptors
# Functional activity of the test compounds was assessed by measuring their potency to inhibit forskolin-activated cAMP production upon activation of human CB2 (hCB2) receptor through homogenous time resolved fluorescence (HTRF) assays.
# CHO-K1 cells stably transfected with hCB2 were grown up to 80-90% confluence in T175 Falcon flasks in DMEM/NUT MIX F-12 culture medium complemented with 2% Solution A (5.10^6 IU/l penicillin G, 5 g/l streptomycin sulphate, 5.5 g/l pyruvate, 14.6 g/l L-glutamine, 1M NaOH) and 10% foetal calf serum. Before the experiments, medium was removed, cells were washed with PBS/EDTA (140 mM NaCl, 1 mM Na2-EDTA, 8 mM Na2HPO4.2H2O, 8.5 mM KH2PO4, 2.7 mM KCl, 21 mM glucose), resuspended in stimulation buffer (HBSS 1×, IBMX 1 mM, Hepes 5 mM, MgCl2 10 mM, BSA 0.1%, pH 7.4). Cells were diluted to a concentration of 10^6 cells/ml for hCB2 experiments. Assays were performed using the cAMP Dynamic HTRF kit (CIS bio international, France) according to the recommendations of the manufacturer.
# For CB2, each well of a 384 flat bottom black polystyrene assay plate (Costar) was filled with 10 μl stimulation buffer containing 15 μM forskolin and either test compound (in 3% DMSO), 3% DMSO or 10 μM Win55212-2 (in 3% DMSO). Then, 20 μl of the diluted hCB2-CHO-K1 cells was added (20,000 cells/well). After 30 minutes incubation in dark at room temperature, 10 μl cAMP-XL665 and 10 μl anti-cAMP cryptate (both at a final dilution of 1/100) was added to the cells.
# After equilibration of the reaction mixtures for 1 to 24 hours in dark at room temperature, fluorescence was measured at 665 nm and 620 nm using a Discovery microplate fluorescence counter (Perkin Elmer), and the signal ratio of 665 nm/620 nm was calculated. The signal ratios of the test compounds were expressed relative to the signal ratios of the DMSO control (maximal signal ratio, no inhibition of cAMP) and WIN55212-2 for hCB2, respectively (minimal signal ratio, maximal inhibition of cAMP). From the dose response curves generated for each test compound, the dose at which 50% of the maximal inhibition of cAMP level is observed (EC50, expressed in the Table as pEC50=−log (EC50) values) and the level of inhibition reached with 10 μM of the test compound compared to WIN55212-2 (for hCB2) was calculated.
Structure (SMILES),LAD (Lowest Acceptable Dose) at which lowering of body temperature was observed in more than half of the treated animals [1] [mg/kg],melting point [°C],CB2 pEC50 [2],EC50 [2] [nM]
CCS(=O)(=O)c1ccc2c(c1)nc(C(C)(C)C)n2CC1CCN(C(C)=O)CC1 [Co. No. 1],>40,–,–,–
CC(=O)N1CCC(Cn2c(C(C)(C)C)nc3cc(S(=O)(=O)CCCC(F)(F)F)ccc32)CC1 [Co. No. 3],>40,–,–,–
CCS(=O)(=O)c1ccc2c(c1)nc(C(C)(C)C)n2CC1CCN(C=O)CC1 [Co. No. 28],>40,–,–,–
CCS(=O)(=O)c1ccc2c(c1)nc(C(C)(C)C)n2CC1CCS(=O)(=O)CC1 [Co. No. 29],>40,–,–,–
CC(=O)N1CCC(Cn2c(C(C)(C)C)nc3cc(S(=O)(=O)c4ccncc4)ccc32)CC1 [Co. No. 34],>40,–,–,–
CC(C)(C)c1nc2cc(S(=O)(=O)CCCC(F)(F)F)ccc2n1CC1CCN(C=O)CC1 [compound 5],–,> 100,8.62,–
CCC(=O)N1CCC(Cn2c(C(C)(C)C)nc3cc(S(=O)(=O)CCCC(F)(F)F)ccc32)CC1.Cl [compound 6],–,> 100,7.72,–
COC(=O)N1CCC(Cn2c(C(C)(C)C)nc3cc(S(=O)(=O)CCCC(F)(F)F)ccc32)CC1.Cl [compound 7],–,> 100,7.77,–
CC(C)(C)c1nc2cc(S(=O)(=O)CCCC(F)(F)F)ccc2n1CC1CCN(C(=O)C(F)(F)F)CC1.Cl [compound 8],–,> 100,7.64,–
COCC(=O)N1CCC(Cn2c(C(C)(C)C)nc3cc(S(=O)(=O)CCCC(F)(F)F)ccc32)CC1 [compound 9],–,> 100,5.80,–
CC(=O)N1CCC(Cn2c(C(C)(C)C)nc3cc(S(=O)(=O)CC4CC4)ccc32)CC1 [compound 24],–,150,–,9.33
CC(=O)N1CCC(Cn2c(C(C)(C)C)nc3cc(S(=O)(=O)Cc4ccc(F)cc4)ccc32)CC1 [compound 25],–,> 100,–,12.3
CC(C)(C)c1nc2cc(S(=O)(=O)CCCO)ccc2n1CC1CCN(C=O)CC1 [compound 26],–,> 100,–,8.91
COCCS(=O)(=O)c1ccc2c(c1)nc(C(C)(C)C)n2CC1CCN(C=O)CC1 [compound 27],–,> 100,–,61.7
CCS(=O)(=O)c1ccc2c(c1)nc(C(C)(C)C)n2CC1CCN(C=O)CC1 [compound 28],–,188 to 190,–,23.4
CCS(=O)(=O)c1ccc2c(c1)nc(C(C)(C)C)n2CC1CCS(=O)(=O)CC1 [compound 29],–,194,–,27.5
CC(C)(C)c1nc2cc(S(=O)(=O)CC3CC3)ccc2n1CC1CCS(=O)(=O)CC1 [compound 31],–,234,–,8.51
CC(=O)N1CCC(Cn2c(C(C)(C)C)nc3cc(S(=O)(=O)c4ccncc4)ccc32)CC1 [compound 34],–,179,–,3.89
CC(C)(C)c1nc2cc(S(=O)(=O)CC3CC3)ccc2n1CC1CCN(C=O)CC1 [compound 36],–,186,8.66,–
CC(=O)N1CCC(Cn2c(C(C)(C)C)nc3cc(S(=O)(=O)c4nccs4)ccc32)CC1 [compound 40],–,191,–,5.89
CC(=O)N1CCC(Cn2c(C(C)(C)C)nc3cc(S(=O)(=O)CC4CCC4)ccc32)CC1 [compound 43],–,155,–,8.71
CCS(=O)(=O)c1ccc2c(c1)nc(CC(C)(C)C)n2CC1CCN(C(C)=O)CC1 [compound 46],–,152 to 155,–,53.7
CCS(=O)(=O)c1ccc2c(c1)nc(CC(C)(C)C)n2CC1CCN(C=O)CC1 [compound 48],–,166 to 168,–,69.2
CC(C)(C)c1nc2cc(S(=O)(=O)c3nccs3)ccc2n1CC1CCN(C=O)CC1 [compound 49],–,190,–,7.41
CC(=O)N1CCC(Cn2c(C(C)(C)C)nc3cc(S(=O)(=O)c4ccccn4)ccc32)CC1 [compound 53],–,205,–,2.95

Structure (SMILES),LAD (Lowest Acceptable Dose) at which lowering of body temperature was observed in more than half of the treated animals [1] [mg/kg],melting point [°C],CB2 pEC50 [2],EC50 [2] [nM]
CC(=O)N1CCC(Cn2c(C(C)(C)C)nc3cc(S(=O)(=O)c4ccc(F)cc4)ccc32)CC1 [compound 59],–,186,–,2.75
CC(=O)N1CCC(Cn2c(C(C)(C)C)nc3cc(S(=O)(=O)c4c(Cl)cccc4Cl)ccc32)CC1 [compound 60],–,224,–,3.47
CCCC(CCC)S(=O)(=O)c1ccc2c(c1)nc(C(C)(C)C)n2CC1CCN(C(C)=O)CC1 [compound 67],–,132,–,2.75
CC(=O)N1CCC(Cn2c(C(C)(C)C)nc3cc(S(=O)(=O)c4cccs4)ccc32)CC1 [compound 68],–,187,–,2.95
CC(=O)N1CCC(Cn2c(C(C)(C)C)nc3cc(S(=O)(=O)c4ccccc4Cl)ccc32)CC1 [compound 71],–,218,–,7.41
COc1cccc(S(=O)(=O)c2ccc3c(c2)nc(C(C)(C)C)n3CC2CCN(C(C)=O)CC2)c1 [compound 82],–,164,–,2.19
CC(=O)N1CCC(Cn2c(C(C)(C)C)nc3cc(S(=O)(=O)c4cccc(C#N)c4)ccc32)CC1 [compound 84],–,191,–,3.31
CC(=O)N1CCC(Cn2c(C(C)(C)C)nc3cc(S(=O)(=O)c4ccc(C(F)(F)F)cc4)ccc32)CC1 [compound 88],–,189,–,0.537
CC(=O)N1CCC(Cn2c(C(C)(C)C)nc3cc(S(=O)(=O)c4cccc(Cl)c4)ccc32)CC1 [compound 90],–,192,–,0.741
COc1cccc(OC)c1S(=O)(=O)c1ccc2c(c1)nc(C(C)(C)C)n2CC1CCN(C(C)=O)CC1 [compound 102],–,–,–,~3.47
CC(=O)N1CCC(Cn2c(C(C)(C)C)nc3cc(S(=O)(=O)c4ccoc4)ccc32)CC1 [compound 103],–,–,–,~3.8
CC(=O)N1CCC(Cn2c(C(C)(C)C)nc3cc(S(=O)(=O)c4ccc(OC(F)(F)F)cc4)ccc32)CC1 [compound 104],–,–,–,~23.4
CC(=O)N1CCC(Cn2c(C(C)(C)C)nc3cc(S(=O)(=O)c4ccc(F)c(C#N)c4)ccc32)CC1 [compound 105],–,–,–,~1.29
COc1ccc(S(=O)(=O)c2ccc3c(c2)nc(C(C)(C)C)n3CC2CCN(C(C)=O)CC2)c(OC)c1 [compound 106],–,–,–,~22.9
CC(=O)N1CCC(Cn2c(C(C)(C)C)nc3cc(S(=O)(=O)c4ccc(C(F)(F)F)cc4Cl)ccc32)CC1 [compound 107],–,–,–,~7.41
COc1cccc(S(=O)(=O)c2ccc3c(c2)nc(C(C)(C)C)n3CC2CCN(C(C)=O)CC2)c1OC [compound 108],–,–,–,~13.8
COc1ccccc1S(=O)(=O)c1ccc2c(c1)nc(C(C)(C)C)n2CC1CCN(C(C)=O)CC1 [compound 109],–,–,–,~8.71
CC(=O)N1CCC(Cn2c(C(C)(C)C)nc3cc(S(=O)(=O)c4ccc(N)c(Cl)c4)ccc32)CC1 [compound 110],–,–,–,~10
CC(=O)N1CCC(Cn2c(C(C)(C)C)nc3cc(S(=O)(=O)c4c(F)cccc4F)ccc32)CC1 [compound 111],–,–,–,~16.6
CC(=O)N1CCC(Cn2c(C(C)(C)C)nc3cc(S(=O)(=O)c4cccc(C#N)c4C)ccc32)CC1 [compound 112],–,–,–,~16.6
CC(=O)N1CCC(Cn2c(C(C)(C)C)nc3cc(S(=O)(=O)c4ccccc4C(F)(F)F)ccc32)CC1 [compound 113],–,–,–,~2.51
CC(=O)N1CCC(Cn2c(C(C)(C)C)nc3cc(S(=O)(=O)c4c(F)cc(F)cc4F)ccc32)CC1 [compound 114],–,–,–,~4.17
CC(=O)N1CCC(Cn2c(C(C)(C)C)nc3cc(S(=O)(=O)c4c(C)cccc4C)ccc32)CC1 [compound 115],–,–,–,~8.32
CC(=O)N1CCC(Cn2c(C(C)(C)C)nc3cc(S(=O)(=O)c4cccc(N5CCOCC5)c4)ccc32)CC1 [compound 116],–,–,–,~44.7
